What is called clearance is a measure of how efficiently the substance is removed, as volume per time. Higher therefore signals efficient removal. In general, half-life refers to the time needed for the level to fall by half in the phase considered. A high value points to slow decline. The term AUC(0-inf) denotes total exposure, with the tail of the curve extrapolated. Read a high AUC(0-inf) as more exposure. Usually bioavailability stands for dose-corrected exposure relative to a reference, in per cent. A higher bioavailability goes with good availability.

Type in all cases: ADME, organism-based
A short description of series [1]: Clearance in rat. To be noted: in vivo.
Series [2] in a line: Clearance in Sprague-Dawley rat at 2 mg/kg, iv. The note with it: in vivo. Also on record: dose 2 mg/kg, route intravenous.
Series [3] is described as follows: Volume of distribution at steady state in Sprague-Dawley rat at 2 mg/kg, iv. The note with it: in vivo, read-out: Vdss. Also on record: dose 2 mg/kg, route intravenous.
Series [4] in a line: Half life in Sprague-Dawley rat at 2 mg/kg, iv. The note with it: in vivo. Also on record: dose 2 mg/kg, route intravenous.
Series [5] is described as follows: AUC (0 to infinity) in Sprague-Dawley rat at 2 mg/kg, po. Also on record: time infinity, dose 2 mg/kg, route oral. To be noted: plasma.
A short description of series [6]: Oral bioavailability in Sprague-Dawley rat at 2 mg/kg. To be noted: in vivo.

Structures are written as SMILES.

Regarding `Cc1ccc(C(=O)NC2CC2)cc1-c1cc2cnn(-c3c(F)cccc3F)c2n(C)c1=O`, the clearance in series [1] was 3.67 mL/min/kg.

`Cc1ccc(C(=O)NC2CC2)cc1-c1ccn2c(-c3c(F)cccc3F)nnc2c1` gave a clearance in series [1] of 6.17 mL/min/kg.

In turn, `Cc1c(F)cc(C(=O)NC2CC2)cc1-c1cc2nnc(-c3c(F)cccc3Cl)n2n(C)c1=O` had a clearance in series [2] of 8.77 mL/min/kg. Moreover, in series [3], the Vd came out at 2.42 L/kg. Also, the half-life in series [4] was 204 min. In series [5], the AUC(0-inf) worked out at 3190 ng·h/mL. Besides, the bioavailability in series [6] was found to be 83%.

In turn, `CCn1c(=O)c(-c2cc(C(=O)NC3CC3)ccc2C)cc2nnc(-c3c(F)cccc3Cl)n21` gave a clearance in series [2] of 13.1 mL/min/kg. For the same compound, the Vd in series [3] came to 2.54 L/kg. Moreover, the half-life in series [4] was 166 min. The same compound gave a total exposure AUC(0-inf) in series [5] of 1420 ng·h/mL. The compound further yielded a bioavailability in series [6] of 55%.

With `CCn1c(=O)c(-c2cc(C(=O)NC3CC3)cc(F)c2C)cc2nnc(-c3c(F)cccc3Cl)n21`, the clearance in series [2] was 11.4 mL/min/kg. Moreover, in series [3], the Vd worked out at 2.7 L/kg. This compound also gave a half-life in series [4] of 166 min. For the same compound, the area under the curve AUC(0-inf) in series [5] was determined as 1370 ng·h/mL. Moreover, the bioavailability in series [6] turned out to be 42%.

Values taken from ChEMBL document CHEMBL1944508, “Identification of triazolopyridazinones as potent p38α inhibitors” (Bioorg Med Chem Lett, 2012).
